Source: patent US9409908B2 (priority 2012, dated 2016)
Structures can show the parent of a compound that is named as a salt.

Columns and labels:
[1] = molecular target: purified human Factor XIa (Homo sapiens (Human), UniProt P03951); test: biochemical; format: biochemical; details: read-out: Factor XIa Ki
[2] = molecular target: purified human plasma kallikrein (Homo sapiens (Human), UniProt P03952); test: biochemical; format: biochemical; details: read-out: Plasma Kallikrein Ki
purified human plasma kallikrein, sequence (P03952 whole entry, looked up): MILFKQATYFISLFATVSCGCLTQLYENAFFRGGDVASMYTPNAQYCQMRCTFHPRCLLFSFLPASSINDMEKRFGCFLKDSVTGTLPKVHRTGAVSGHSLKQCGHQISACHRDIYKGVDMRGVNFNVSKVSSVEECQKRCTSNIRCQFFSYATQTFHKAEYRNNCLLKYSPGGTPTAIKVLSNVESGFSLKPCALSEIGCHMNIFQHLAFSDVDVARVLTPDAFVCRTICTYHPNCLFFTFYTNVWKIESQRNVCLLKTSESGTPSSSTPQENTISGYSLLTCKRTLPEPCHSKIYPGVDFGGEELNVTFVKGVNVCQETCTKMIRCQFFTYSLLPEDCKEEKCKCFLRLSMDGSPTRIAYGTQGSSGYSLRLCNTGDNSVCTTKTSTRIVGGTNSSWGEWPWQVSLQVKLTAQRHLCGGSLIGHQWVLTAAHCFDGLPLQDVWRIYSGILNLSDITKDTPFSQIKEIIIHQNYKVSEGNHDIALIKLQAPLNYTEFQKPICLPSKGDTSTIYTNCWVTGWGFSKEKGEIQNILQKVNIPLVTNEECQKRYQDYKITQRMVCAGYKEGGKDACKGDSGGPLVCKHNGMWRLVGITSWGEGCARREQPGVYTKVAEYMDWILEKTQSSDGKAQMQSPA
purified human plasma kallikrein, sequence (P03952 whole entry partner, looked up): as the sequence (P03952 whole entry, looked up) above

purified human Factor XIa, sequence (P03951 whole entry, looked up): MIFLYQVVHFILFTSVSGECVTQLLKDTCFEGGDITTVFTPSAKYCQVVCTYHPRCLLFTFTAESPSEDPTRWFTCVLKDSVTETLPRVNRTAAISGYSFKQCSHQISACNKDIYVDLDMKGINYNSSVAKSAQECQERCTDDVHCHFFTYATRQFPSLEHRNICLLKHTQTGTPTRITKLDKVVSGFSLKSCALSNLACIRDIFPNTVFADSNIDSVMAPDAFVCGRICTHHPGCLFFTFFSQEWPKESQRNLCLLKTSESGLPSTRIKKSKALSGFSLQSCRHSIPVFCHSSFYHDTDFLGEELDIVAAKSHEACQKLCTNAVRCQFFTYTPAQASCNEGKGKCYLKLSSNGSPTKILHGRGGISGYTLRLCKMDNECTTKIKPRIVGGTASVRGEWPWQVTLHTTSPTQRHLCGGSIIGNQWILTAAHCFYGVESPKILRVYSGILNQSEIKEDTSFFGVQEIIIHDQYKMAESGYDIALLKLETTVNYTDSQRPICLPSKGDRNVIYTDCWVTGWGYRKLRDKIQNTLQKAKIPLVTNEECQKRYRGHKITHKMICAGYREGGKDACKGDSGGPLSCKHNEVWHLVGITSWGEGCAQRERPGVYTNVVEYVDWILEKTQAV
purified human Factor XIa, sequence (P03951 whole entry partner, looked up): as the sequence (P03951 whole entry, looked up) above

Row | SMILES | Ki [1] | Ki [2]
1 | C[C@@H]1CCC[C@H](N2CCC(c3c(F)ccc(Cl)c3F)=CC2=O)c2cc(ccn2)-c2ccc(Nc3cccnn3)cc2NC1=O [Example 196, (10R,14S)-14-[4-(3-chloro-2,6-difluorophenyl)-6-oxo-1,2,3,6-tetrahydropyridin-1-yl]-10-methyl-5-[(pyridazin-3-yl)amino]-8,16-diazatricyclo[13.3.1.0^2,7]nonadeca-1(19),2(7),3,5,15,17-hexaen-9-one, 2 TFA salt] | 0.8 nM | 1.52 nM
2 | C[C@@H]1CCC[C@H](N2CCC(c3c(F)ccc(Cl)c3F)=CC2=O)c2cc(ccn2)-c2cc(C(=O)O)c(N)cc2NC1=O [Example 198, (10R,14S)-5-amino-14-[4-(3-chloro-2,6-difluorophenyl)-6-oxo-1,2,3,6-tetrahydropyridin-1-yl]-10-methyl-9-oxo-8,16-diazatricyclo[13.3.1.0^2,7]nonadeca-1(19),2,4,6,15,17-hexaene-4-carboxylic acid, 2 TFA salt] | < 0.05 nM | 1 nM
3 | C[C@@H]1CCC[C@H](N2CCC(c3c(F)ccc(Cl)c3F)=CC2=O)c2cc(ccn2)-c2cc3c(O)cc(=O)[nH]c3cc2NC1=O [Example 199, (14R,18S)-18-[4-(3-chloro-2,6-difluorophenyl)-6-oxo-1,2,3,6-tetrahydropyridin-1-yl]-5-hydroxy-14-methyl-8,12,20-triazatetracyclo[17.3.1.0^2,11.0^4,9]tricosa-1(23),2,4(9),5,10,19,21-heptaene-7,13-dione, TFA salt] | < 0.05 nM | 1.79 nM
4 | C[C@@H]1CCC[C@H](n2ccc(-c3c(F)ccc(Cl)c3F)cc2=O)c2cc(ccn2)-c2c(F)cccc2NC1=O [Example 200, (10R,14S)-14-[4-(3-chloro-2,6-difluorophenyl)-2-oxo-1,2-dihydropyridin-1-yl]-3-fluoro-10-methyl-8,16-diazatricyclo[13.3.1.0^2,7]nonadeca-1(19),2(7),3,5,15,17-hexaen-9-one, TFA salt] | 18.1 nM | 28.7 nM
5 | C[C@@H]1CCC[C@H](N2CCC(c3c(F)ccc(Cl)c3F)=CC2=O)c2cc(ccn2)-c2c(F)cc(F)cc2NC1=O [Example 201, (10R,14S)-14-[4-(3-chloro-2,6-difluorophenyl)-6-oxo-1,2,3,6-tetrahydropyridin-1-yl]-3,5-difluoro-10-methyl-8,16-diazatricyclo[13.3.1.0^2,7]nonadeca-1(19),2(7),3,5,15,17-hexaen-9-one, TFA salt] | 50 nM | 105 nM
6 | C[C@@H]1CCC[C@H](N2CCC(c3c(Br)ccc(Cl)c3F)=CC2=O)c2cc(ccn2)-c2c(F)cc(F)cc2NC1=O [Example 202, (10R,14S)-14-[4-(6-bromo-3-chloro-2-fluorophenyl)-6-oxo-1,2,3,6-tetrahydropyridin-1-yl]-3,5-difluoro-10-methyl-8,16-diazatricyclo[13.3.1.0^2,7]nonadeca-1(19),2(7),3,5,15,17-hexaen-9-one] | 8.56 nM | 30.1 nM
7 | C[C@@H]1CCC[C@H](N2CCC(c3c(F)ccc(Cl)c3F)=CC2=O)c2cc(ccn2)-c2c(ccc(F)c2F)NC1=O [Example 203, (10R,14S)-14-[4-(3-chloro-2,6-difluorophenyl)-6-oxo-1,2,3,6-tetrahydropyridin-1-yl]-3,4-difluoro-10-methyl-8,16-diazatricyclo[13.3.1.0^2,7]nonadeca-1(19),2(7),3,5,15,17-hexaen-9-one, TFA salt] | 19.4 nM | 44 nM
8 | C[C@@H]1CCC[C@H](N2CCC(c3c(Br)ccc(Cl)c3F)=CC2=O)c2cc(ccn2)-c2c(ccc(F)c2F)NC1=O [Example 204, (10R,14S)-14-[4-(6-bromo-3-chloro-2-fluorophenyl)-6-oxo-1,2,3,6-tetrahydropyridin-1-yl]-3,4-difluoro-10-methyl-8,16-diazatricyclo[13.3.1.0^2,7]nonadeca-1(19),2(7),3,5,15,17-hexaen-9-one, TFA salt] | 4.46 nM | 16 nM
9 | C[C@@H]1CCC[C@H](N2CCC(c3c(F)ccc(Cl)c3F)=CC2=O)c2cc(ccn2)-c2cc(F)c(F)cc2NC1=O [Example 205, (10R,14S)-14-[4-(3-chloro-2,6-difluorophenyl)-6-oxo-1,2,3,6-tetrahydropyridin-1-yl]-4,5-difluoro-10-methyl-8,16-diazatricyclo[13.3.1.0^2,7]nonadeca-1(19),2(7),3,5,15,17-hexaen-9-one, TFA salt] | 69.2 nM | 88.4 nM
10 | C[C@@H]1CCC[C@H](N2CCC(c3c(Br)ccc(Cl)c3F)=CC2=O)c2cc(ccn2)-c2cc(F)c(F)cc2NC1=O [Example 206, (10R,14S)-14-[4-(6-bromo-3-chloro-2-fluorophenyl)-6-oxo-1,2,3,6-tetrahydropyridin-1-yl]-4,5-difluoro-10-methyl-8,16-diazatricyclo[13.3.1.0^2,7]nonadeca-1(19),2(7),3,5,15,17-hexaen-9-one, TFA salt] | 11.8 nM | 27.5 nM
11 | C[C@@H]1CCC[C@H](N2CCC(c3c(C#N)ccc(Cl)c3F)=CC2=O)c2cc(ccn2)-c2c(F)cc(F)cc2NC1=O [Example 207, 4-chloro-2-{1-[(10R,14S)-3,5-difluoro-10-methyl-9-oxo-8,16-diazatricyclo[13.3.1.0^2,7]nonadeca-1(19),2(7),3,5,15,17-hexaen-14-yl]-6-oxo-1,2,3,6-tetrahydropyridin-4-yl}-3-fluorobenzonitrile, TFA salt] | 2.75 nM | 5.8 nM
12 | C[C@@H]1CCC[C@H](N2CCC(c3c(C#N)ccc(Cl)c3F)=CC2=O)c2cc(ccn2)-c2c(ccc(F)c2F)NC1=O [Example 208, 4-chloro-2-{1-[(10R,14S)-3,4-difluoro-10-methyl-9-oxo-8,16-diazatricyclo[13.3.1.0^2,7]nonadeca-1(19),2(7),3,5,15,17-hexaen-14-yl]-6-oxo-1,2,3,6-tetrahydropyridin-4-yl}-3-fluorobenzonitrile, TFA salt] | 1 nM | 3.1 nM
13 | C[C@@H]1CCC[C@H](N2CCC(c3c(C#N)ccc(C#N)c3F)=CC2=O)c2cc(ccn2)-c2c(ccc(F)c2F)NC1=O [Example 209, 2-{1-[(10R,14S)-3,4-difluoro-10-methyl-9-oxo-8,16-diazatricyclo[13.3.1.0^2,7]nonadeca-1(19),2(7),3,5,15,17-hexaen-14-yl]-6-oxo-1,2,3,6-tetrahydropyridin-4-yl}-3-fluorobenzene-1,4-dicarbonitrile, TFA salt] | 120 nM | 457 nM
14 | C[C@@H]1CCC[C@H](N2CCC(c3c(C#N)ccc(C#N)c3F)=CC2=O)c2cc(ccn2)-c2cc(F)c(F)cc2NC1=O [Example 210, 2-{1-[(10R,14S)-4,5-difluoro-10-methyl-9-oxo-8,16-diazatricyclo[13.3.1.0^2,7]nonadeca-1(19),2(7),3,5,15,17-hexaen-14-yl]-6-oxo-1,2,3,6-tetrahydropyridin-4-yl}-3-fluorobenzene-1,4-dicarbonitrile, TFA salt] | 477 nM | 1200 nM
15 | C[C@@H]1CCC[C@H](N2CCC(c3c(C#N)ccc(Cl)c3F)=CC2=O)c2cc(ccn2)-c2cc(F)c(F)cc2NC1=O [Example 211, 4-chloro-2-{1-[(10R,14S)-4,5-difluoro-10-methyl-9-oxo-8,16-diazatricyclo[13.3.1.0^2,7]nonadeca-1(19),2(7),3,5,15,17-hexaen-14-yl]-6-oxo-1,2,3,6-tetrahydropyridin-4-yl}-3-fluorobenzonitrile, TFA salt] | 3.26 nM | 6.46 nM
16 | C[C@@H]1CCC[C@H](n2ccc(-c3cccc(Cl)c3F)cc2=O)c2cc(ccn2)-c2c(F)cc(F)cc2NC1=O [Example 212, (10R,14S)-14-[4-(3-chloro-2-fluorophenyl)-2-oxo-1,2-dihydropyridin-1-yl]-3,5-difluoro-10-methyl-8,16-diazatricyclo[13.3.1.0^2,7]nonadeca-1(19),2(7),3,5,15,17-hexaen-9-one, TFA salt] | 111 nM | 286 nM
17 | COC(=O)c1cccc2c1-c1ccnc(c1)[C@@H](N1CCC(c3c(F)ccc(Cl)c3F)=CC1=O)CCC[C@@H](C)C(=O)N2 [Example 213, Methyl (10R,14S)-14-[4-(3-chloro-2,6-difluorophenyl)-6-oxo-1,2,3,6-tetrahydropyridin-1-yl]-10-methyl-9-oxo-8,16-diazatricyclo[13.3.1.0^2,7]nonadeca-1(19),2(7),3,5,15,17-hexaene-3-carboxylate, TFA salt] | > 413 nM | 3370 nM
18 | C[C@@H]1CCC[C@H](N2CCC(c3c(F)ccc(Cl)c3F)=CC2=O)c2cc(ccn2)-c2c(cccc2C(=O)O)NC1=O [Example 214, (10R,14S)-14-[4-(3-chloro-2,6-difluorophenyl)-6-oxo-1,2,3,6-tetrahydropyridin-1-yl]-10-methyl-9-oxo-8,16-diazatricyclo[13.3.1.0^2,7]nonadeca-1(19),2(7),3,5,15,17-hexaene-3-carboxylic acid, TFA salt] | > 423 nM | > 13000 nM
19 | C[C@@H]1CCC[C@H](N2CCC(c3c(-n4cnnn4)ccc(Cl)c3F)=CC2=O)c2cc(ccn2)-c2cc(F)c(F)cc2NC1=O [Example 215, (10R,14S)-14-{4-[3-chloro-2-fluoro-6-(1H-1,2,3,4-tetrazol-1-yl)phenyl]-6-oxo-1,2,3,6-tetrahydropyridin-1-yl}-4,5-difluoro-10-methyl-8,16-diazatricyclo[13.3.1.0^2,7]nonadeca-1(19),2(7),3,5,15,17-hexaen-9-one, TFA salt] | 0.07 nM | 3.61 nM
20 | COC(=O)Nc1ccc2c(c1)C(=O)NCC/C=C/C[C@H](N1CCC(c3c(F)ccc(Cl)c3F)=CC1=O)c1cc-2ccn1 [Example 216, Methyl N-[(12E,15S)-15-[4-(3-chloro-2,6-difluorophenyl)-6-oxo-1,2,3,6-tetrahydropyridin-1-yl]-8-oxo-9,17-diazatricyclo[14.3.1.0^2,7]icosa-1(20),2(7),3,5,12,16,18-heptaen-5-yl]carbamate, TFA salt] | 264 nM | 212 nM
